The target in test [1] is T1, AChE (Homo sapiens, UniProt P22303). Particulars: previous in vitro and in vivo reports; cited from earlier work.
Test [2] addresses T1, AChE. Briefly: biochemical. Particulars: for inhibition at 2 µM: concentration 2 μM; for inhibition at 10 µM: concentration 10 μM; for inhibition at 50 µM: concentration 50 μM.
For test [3] the following is noted: previous studies; cited from earlier work.
The mark [4] stands for this setting: Ellman method, pH 8.0, triplicate, read-out: IC50 (AChE-inhibitory activity).
Where [5] appears, read: read-out: Inhibition (%) of AChE.

Each structure is given as a SMILES string. Like-named read-outs stand apart in the source and are kept apart here.

T1 sequence (P22303 32-614): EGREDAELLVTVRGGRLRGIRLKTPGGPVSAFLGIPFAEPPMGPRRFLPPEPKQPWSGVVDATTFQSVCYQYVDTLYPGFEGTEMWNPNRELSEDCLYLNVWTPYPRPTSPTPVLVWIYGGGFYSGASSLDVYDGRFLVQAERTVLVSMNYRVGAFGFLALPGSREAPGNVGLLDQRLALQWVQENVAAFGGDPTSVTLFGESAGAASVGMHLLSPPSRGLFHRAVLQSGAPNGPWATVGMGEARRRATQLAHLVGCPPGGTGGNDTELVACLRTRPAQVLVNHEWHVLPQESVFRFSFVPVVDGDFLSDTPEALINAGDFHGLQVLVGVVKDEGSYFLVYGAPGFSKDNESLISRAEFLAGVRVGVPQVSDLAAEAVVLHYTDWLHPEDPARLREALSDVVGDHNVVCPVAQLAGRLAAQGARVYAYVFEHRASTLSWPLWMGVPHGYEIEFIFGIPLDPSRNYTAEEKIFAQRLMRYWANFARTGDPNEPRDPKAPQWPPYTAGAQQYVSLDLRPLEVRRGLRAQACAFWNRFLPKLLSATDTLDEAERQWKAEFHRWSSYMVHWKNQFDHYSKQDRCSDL

With `COc1cc(C=O)ccc1O` [Compound 3, vanillin], the AChE-inhibitory activities entry in test [1] is reported as “has AChE-inhibitory activities”. In addition, in test [2], the IC50 came out at 39.3 µM, the inhibition at 2 µM was -1.88% and the inhibition at 10 µM was found to be 6.07%.

`O=CC1=CC[C@@H](O)[C@H]2CCC[C@@H]12` (relative stereo) [Compound 2, rel-(1R,5R,6S)-5-hydroxybicyclo[4,3,0]non-2-ene-2-carboxaldehyde]: in test [3], the Antifungal activity result is on record as “weak antifungal activity”. Moreover, the IC50 in test [2] (setting [4]) turned out to be 41.7 µM. In addition, in test [2], the inhibition at 2 µM was -6.07%, the inhibition at 10 µM turned out to be 7.74% and the inhibition at 50 µM is 62.1%.

Turning to `COc1ccc2cc3[n+](cc2c1OC)CCc1cc2c(cc1-3)OCO2` [berberine, reference compound], in test [2] (setting [5]), the inhibition at 0.04 µM was 20.7%, the inhibition at 0.2 µM was determined as 73.4% and the inhibition at 1 µM is 95.8%.

On to `O=C(O)C1=CC[C@@H](O)[C@H]2CCC[C@@H]12` (relative stereo) [Compound 1, rel-(1R,5R,6S)-5-hydroxybicyclo[4.3.0]non-2-ene-2-carboxylic acid], for which the IC50 in test [2] (setting [4]) came to 32.8 µM. For the same compound, in test [2], the inhibition at 2 µM is 2.09%, the inhibition at 10 µM is 29.5% and the inhibition at 50 µM stood at 70.9%.

`COc1cc(/C=C/C=C/C(=O)CCc2ccc(O)cc2)ccc1O` [Compound 4, tsaokoarylone]: the IC50 in test [2] (setting [4]) was found to be 31.1 µM. In addition, in test [2], the inhibition at 2 µM was -11.9%, the inhibition at 10 µM is 30.8% and the inhibition at 50 µM turned out to be 78.7%.

For orientation: IC50 means the concentration needed to halve the response being measured. The term inhibition denotes the drop in the measured response relative to a control, in per cent.

The values are drawn from PMC10059965, “Tsaokoic Acid: A New Bicyclic Nonene from the Fruits of Amomum tsao-ko with Acetylcholinesterase Inhibitory Activity” (Molecules, 2023).
